Series [1] can be described thus: Complex stability by capillary electrophoresis (decrease of initial complex over time). The note with it: MeOH/water (50/50, v/v), 1 mM, 37 °C, CE. The class given is physicochemical. The protocol:
The analysis was performed as previously described. A 50 mM sodium tetraborate solution (pH = 9.3, adjusted with 1 M NaOH), served as background electrolyte (BGE). Washing of novel capillaries consecutively with 1 M NaOH (45 min), water (45 min), and BGE (45 min) was performed. The hydrodynamic injection mode was utilized to introduce the samples into the capillary (50 mbar for 2 s). The capillary was kept at 25 °C, and the autosampler was thermostatted at 37 °C with an external water bath. For separation, the voltage was set to 20 kV, and the detection was carried out at the wavelength of 230 nm. Before each measurement, flushing of the capillary with 0.1 M NaOH (3 min), water (3 min), and BGE (5 min) took place. The samples were dissolved in methanol (MeOH) and further diluted in equal parts by volume with water to give a final concentration of 1 mM. Triple determinations were performed, and the half-lives (τ½) are presented as mean ± SD of ≥3 independent experiments. Samples, washing solutions, and buffers were filtered through a membrane with 0.22 µm porosity and degassed by ultrasonication before use. To simplify the reaction dynamics from a possible second-order to pseudo-first-order, one of two reactants must be present in great excess (>10 to 25-fold). If this condition is fulfilled, logarithmic plotting of the gradual decrease in the other reactant’s concentration (or increase in the concentration of a product, respectively) against the time yields a straight line, and half-lives can be calculated.
An already-established method was used to study the stability of the X-ASA-Prop-PtCl3 and X-ASA-But-PtCl3 complexes. The degradation products were separated by capillary electrophoresis using a fused-silica capillary ([…] × 75 µm, effective length: 56 cm, capillary temperature: 25 °C) and a 50 mM tetraborate buffer (pH = 9.3) as BGE. For separation, the voltage was set to 20 kV and the compounds were detected at 230 nm. Benzoic acid was used as an internal standard. Exemplary electropherograms of each complex can be found in the Supplementary Material (Figures S1–S24).
The complexes (1 mM) were dissolved in MeOH or MeOH/water (50/50, v/v) and stored at 37 °C. The decrease in the initial amount of complex was monitored time-dependently by CE, and the half-life (τ½) was calculated (Table 2).

For another series, the system named is HT-29 cells. The series is described as follows: Crystal violet assay, antiproliferative effects in HT-29 cells. The class given is cell-based. The following applies: HT-29 (COX-1/2-positive), 72 h. How it is done: (§1) In order to investigate the cytotoxic effects in MCF-7 and HT-29 cells, an already published crystal violet assay was used. The cells (HT-29: 3 × 10^3 cells per well in 100 µL of medium; MCF-7: 2 × 10^3 cells per well in 100 µL of medium) were seeded in their exponential growth phase in completed DMEM into 96-well microtiter plates in quadruples. […] Cells were then fixed with a solution of 1% (v/v) glutaric dialdehyde in PBS. In order to determine the cell biomass, the chromatin of the attached cells was stained with crystal violet, and the bound dye was extracted with EtOH (70%). The absorbance was measured at 590 nm. Mean values ± SD of ≥2 independent experiments were calculated, and the activity of the complexes was expressed as the cell mass of the vehicle-treated control, which was set to 100%.
(§2) The compounds were investigated regarding their cytotoxicity (in vitro) employing an already published crystal violet assay. It is based on the quantification of the cell biomass of living cells by staining the chromatin. In order to evaluate the possible influence of COX inhibition on cell growth, Zeise’s salt derivatives were investigated comparatively in HT-29 and MCF-7 cell lines.

For the next series, the system named is MCF-7 cells. Description: Crystal violet assay, antiproliferative effects in MCF-7 cells. In kind it is cell-based. The following applies: MCF-7 (COX-negative), 72 h. How it is done: as §1, §2

Turning to `CC(=O)Oc1c(C)cccc1C(=O)OCC[CH]1[CH2][Pt-]1([Cl])([Cl])[Cl].[K+]` (centres unmarked) [3-CH3-ASA-But-PtCl3, Potassium trichlorido[η^2-(but-3-en-1-yl)-2-acetoxy-3-methylbenzoate]platinate(II)], the “Half-life (τ½)” value in series [1] was determined as 45.9 ± 6.0 h. The IC50 in the series with HT-29 cells is 18 ± 2.4 µM; with MCF-7 cells, 45.6 ± 7.2 µM.

With `CC(=O)Oc1c(C)cccc1C(=O)OC[CH]1[CH2][Pt-]1([Cl])([Cl])[Cl].[K+]` (centres unmarked) [3-CH3-ASA-Prop-PtCl3, Potassium trichlorido[η^2-(prop-2-en-1-yl)-2-acetoxy-3-methylbenzoate]platinate(II)], the “Half-life (τ½)” value in series [1] is 0.585 ± 0.0383 h. Further, the figures for the IC50 in the series with HT-29 cells and in the series with MCF-7 cells were 27.8 ± 3.4 µM and 71.4 ± 3.1 µM, respectively.

Turning to `CC(=O)Oc1c(Cl)cccc1C(=O)OCC[CH]1[CH2][Pt-]1([Cl])([Cl])[Cl].[K+]` (centres unmarked) [3-Cl-ASA-But-PtCl3, Potassium trichlorido[η^2-(but-3-en-1-yl)-2-acetoxy-3-chlorobenzoate]platinate(II)], the “Half-life (τ½)” value in series [1] turned out to be 47.0 ± 14.0 h. In addition, the IC50 amounted to 43 ± 10.9 µM in the series with HT-29 cells and 33.5 ± 1.9 µM in the series with MCF-7 cells.

Turning to `CC(=O)Oc1c(F)cccc1C(=O)OCC[CH]1[CH2][Pt-]1([Cl])([Cl])[Cl].[K+]` (centres unmarked) [3-F-ASA-But-PtCl3, Potassium trichlorido[η^2-(but-3-en-1-yl)-2-acetoxy-3-fluorobenzoate]platinate(II)], the “Half-life (τ½)” value in series [1] was found to be 51.9 ± 2.5 h. Besides, the 50% inhibitory concentration (IC50) was 69.4 ± 1.5 µM with HT-29 cells and 97.4 ± 17.6 µM in the series with MCF-7 cells.

`CC(=O)Oc1cc(C)ccc1C(=O)OCC[CH]1[CH2][Pt-]1([Cl])([Cl])[Cl].[K+]` (centres unmarked) [4-CH3-ASA-But-PtCl3, Potassium trichlorido[η^2-(but-3-en-1-yl)-2-acetoxy-4-methylbenzoate]platinate(II)]: in series [1], the “Half-life (τ½)” value was 65.7 ± 7.2 h. In addition, the values for the IC50 in the series on HT-29 cells and in the series with MCF-7 cells were 27.1 ± 1.5 µM and 38.8 ± 6.5 µM, respectively.

On to `CC(=O)Oc1cc(F)ccc1C(=O)OCC[CH]1[CH2][Pt-]1([Cl])([Cl])[Cl].[K+]` (centres unmarked) [4-F-ASA-But-PtCl3, Potassium trichlorido[η^2-(but-3-en-1-yl)-2-acetoxy-4-fluorobenzoate]platinate(II)], for which the “Half-life (τ½)” value in series [1] is 49.9 ± 4.5 h. Moreover, the IC50 in the series with HT-29 cells was determined as 89.2 ± 3.5 µM; in the series with MCF-7 cells, 105.9 ± 0.4 µM.

With `CC(=O)Oc1ccc(Cl)cc1C(=O)OCC[CH]1[CH2][Pt-]1([Cl])([Cl])[Cl].[K+]` (centres unmarked) [5-Cl-ASA-But-PtCl3, Potassium trichlorido[η^2-(but-3-en-1-yl)-2-acetoxy-5-chlorobenzoate]platinate(II)], the “Half-life (τ½)” value in series [1] is 62.4 ± 1.6 h. In addition, the IC50 with HT-29 cells was 49.1 ± 6.2 µM; in the series on MCF-7 cells, 28.2 ± 4.5 µM.

Turning to `CC(=O)Oc1ccc(F)cc1C(=O)OCC[CH]1[CH2][Pt-]1([Cl])([Cl])[Cl].[K+]` (centres unmarked) [5-F-ASA-But-PtCl3, Potassium trichlorido[η^2-(but-3-en-1-yl)-2-acetoxy-5-fluorobenzoate]platinate(II)], in series [1], the “Half-life (τ½)” value is reported as 48.1 ± 4.3 h. Further, the IC50 was found to be 75.8 ± 13.2 µM in the series on HT-29 cells and 93.8 ± 10.8 µM with MCF-7 cells.

Take `CC(=O)Oc1ccc(F)cc1C(=O)OC[CH]1[CH2][Pt-]1([Cl])([Cl])[Cl].[K+]` (centres unmarked) [5-F-ASA-Prop-PtCl3, Potassium trichlorido[η^2-(prop-2-en-1-yl)-2-acetoxy-5-fluorobenzoate]platinate(II)]: the “Half-life (τ½)” value in series [1] came to 0.46 ± 0.02 h. Also, the IC50 in the series with HT-29 cells worked out at 110 ± 21.7 µM; with MCF-7 cells it was 106 ± 4.1 µM.

On to `CC(=O)Oc1cccc(C)c1C(=O)OCC[CH]1[CH2][Pt-]1([Cl])([Cl])[Cl].[K+]` (centres unmarked) [6-CH3-ASA-But-PtCl3, Potassium trichlorido[η^2-(but-3-en-1-yl)-2-acetoxy-6-methylbenzoate]platinate(II)], for which, in series [1], the “Half-life (τ½)” value was determined as 35.0 ± 3.7 h. Also, the IC50 with HT-29 cells stood at 20.2 ± 0.2 µM; in the series on MCF-7 cells, 35.3 ± 0.9 µM.

`N.N.[Cl][Pt][Cl]` [Cisplatin, reference compound]: the IC50 in the series on HT-29 cells came to 2.6 ± 0.1 µM; in the series with MCF-7 cells, 3.7 ± 0.3 µM.
